Measured values: US20090217390A1, “Non-human animal sarcoma model” (priority 2005, published 2009)
“And” between values parts separate entries of the source, which are not always exact repeats. Equal values may be shown once.

Experiments:
Assay type in all cases: cell-based, mouse
[1] = system: C3H/10T1/2 parental cell line; assay: Cytotoxicity experiment with increasing doses of blasticidin; settings: doses 0.3-3 μg/ml
Method: The selective blasticidin dose was established on the basis of a previous cytotoxicity experiment for the C3H/10T1/2 parental cell line, which received increasing doses of blasticidin (0.3, 0.6, 0.8, 1, 1.5, 2, 2.5, 3 μg/ml). 2 μg/ml was determined to be the lowest dose that induced 100% death due to cytotoxicity.

[2] = system: EWS-FLI1 chimeric fusion expression in clone 7.5; assay: Induction of chimeric fusion by doxycycline (RT-PCR), clone 7.5; settings: 48 hours
Method: (§1) FIG. 3. Induction of chimeric fusion by Doxycycline. A. Upper gel. Induction of chimeric fusion following treatment of the cells with increasing doxycycline doses (0-3 μg/ml) in clone 7.5. The maximum induction was obtained for 2.5-μg/ml doxycycline doses. Lower gel. The quantity of amplified product was identical in all cases, as shown by Beta-actin. B. Upper gel. The maximum induction for clone 10.6 was at 1.5-μg/ml doxycycline doses. Higher doses caused saturation of the promoter's response. Lower gel. Beta-actin.
(§2) Clones 7.5 and 10.6 received increasing doses of doxycycline for 48 hours, after which time the presence of fusion was examined by means of RT-PCR.

[3] = system: EWS-FLI1 chimeric fusion expression in clone 10.6; assay: Induction of chimeric fusion by doxycycline (RT-PCR), clone 10.6; settings: 48 hours
Method: as §1, §2

Row | Structure (SMILES) | lowest dose that induced 100% death due to cytotoxicity [1] [µg/mL] | doxycycline dose causing a slight induction of chimeric fusion [2] [µg/mL] | doxycycline concentration of maximum induction of chimeric fusion ([2]; doses 0-3 μg/ml) [µg/mL] | doxycycline concentration of maximum induction of chimeric fusion (higher doses cause no greater induction) [3] | doxycycline dose at which induction of fusion was found [3]
1 | CN(CC[C@H](N)CC(=O)N[C@H]1C=C[C@H](n2ccc(N)nc2=O)O[C@@H]1C(=O)O)C(=N)N [blasticidin] | 2 |  |  |  | 
2 | C[C@H]1c2cccc(O)c2C(=O)C2=C(O)[C@]3(O)C(=O)C(C(N)=O)=C(O)[C@@H](N(C)C)[C@@H]3[C@@H](O)[C@@H]21 [doxycycline] |  | 0.3 | 2.5 | 1.5 to 2 µg/mL and 1.5 µg/mL | greater than 0.3 μg/ml
